Data from the supplement of paper PMC6965134.
± gives the standard deviation of the averaged measurements.

Test: TIMS collisional cross section (CCS, N2) of the lipid ion; higher = larger ion cross section
Conditions: ionization mode: positive, one isomer drawn

Q: For `CCCCC/C=C\C/C=C\CCCCCCCC(=O)OC[C@@H](COC(=O)CCCCCCC/C=C\CCCCCC)OC(=O)CCCCCCC/C=C\CCCCCCCC` [TG 16:1_18:1_18:2] (ion (formula + adduct): [C55H98O6+NH4] 1+), which “TIMS collisional cross section” value (sample type: HeLa) is on record?
A: 318.2 Å²

Q: What about the “TIMS collisional cross section” value (sample type: Liver) of the same compound?
A: 317.35 ± 0.35 Å²

Q: What about the “TIMS collisional cross section” value (sample type: plasma) of the same compound?
A: 317.4 ± 0.42 Å²

Q: For `CCCCCC/C=C\CCCCCCCC(=O)OC[C@H](COC(=O)CCCCCCCCC/C=C\CCCCCCCC)OC(=O)CCCCCCC/C=C\CCCCCCCC` [TG 16:1_18:1_20:1] (ion (formula + adduct): [C57H104O6+NH4] 1+), which “TIMS collisional cross section” value (sample type: HeLa) is on record?
A: 326 Å²

Q: What about the “TIMS collisional cross section” value (sample type: Liver) of the same compound?
A: 327 Å²

Q: For `CCCCC/C=C\C/C=C\CCCCCCCCCC(=O)OC[C@@H](COC(=O)CCCCCCC/C=C\CCCCCC)OC(=O)CCCCCCC/C=C\CCCCCCCC` [TG 16:1_18:1_20:2] (ion (formula + adduct): [C57H102O6+NH4] 1+), which “TIMS collisional cross section” value (sample type: Liver) is on record?
A: 324.7 Å²

Q: Which “TIMS collisional cross section” value (sample type: Liver) does the source give for `CCCCC/C=C\C/C=C\C/C=C\C/C=C\CCCC(=O)OC[C@@H](COC(=O)CCCCCCC/C=C\CCCCCC)OC(=O)CCCCCCC/C=C\CCCCCCCC` [TG 16:1_18:1_20:4] (ion (formula + adduct): [C57H98O6+NH4] 1+) here?
A: 323.5 Å²

Q: Which “TIMS collisional cross section” value (sample type: HeLa) does the source give for `CC/C=C\C/C=C\C/C=C\C/C=C\C/C=C\CCCCCC(=O)OC[C@@H](COC(=O)CCCCCCC/C=C\CCCCCC)OC(=O)CCCCCCC/C=C\CCCCCCCC` [TG 16:1_18:1_22:5] (ion (formula + adduct): [C59H100O6+NH4] 1+) here?
A: 325.9 Å²

Q: And the “TIMS collisional cross section” value (sample type: plasma)?
A: 327.7 Å²

Q: Which “TIMS collisional cross section” value (sample type: Liver) does the source give for `CCCCC/C=C\C/C=C\CCCCCCCC(=O)OC[C@@H](COC(=O)CCCCCCC/C=C\CCCCCC)OC(=O)CCCCCCC/C=C\C/C=C\CCCCC` [TG 16:1_18:2_18:2] (ion (formula + adduct): [C55H96O6+NH4] 1+) here?
A: 315.45 ± 0.49 Å²

Q: Which “TIMS collisional cross section” value (sample type: Liver) does the source give for `CC/C=C\C/C=C\C/C=C\CCCCCCCC(=O)OC[C@@H](COC(=O)CCCCCCC/C=C\CCCCCC)OC(=O)CCCCCCC/C=C\C/C=C\CCCCC` [TG 16:1_18:2_18:3] (ion (formula + adduct): [C55H94O6+NH4] 1+) here?
A: 312.8 Å²

Q: And the “TIMS collisional cross section” value (sample type: plasma)?
A: 314.1 Å²

Q: Which “TIMS collisional cross section” value (sample type: HeLa) does the source give for `CCCCC/C=C\C/C=C\CCCCCCCCCCCC(=O)OC[C@@H](COC(=O)CCCCCCC/C=C\CCCCCC)OC(=O)CCCCCCC/C=C\CCCCCCCCC` [TG 16:1_19:1_22:2] (ion (formula + adduct): [C60H108O6+NH4] 1+) here?
A: 332.3 Å²

Q: Which “TIMS collisional cross section” value (sample type: HeLa) does the source give for `CCCCC/C=C\C/C=C\C/C=C\C/C=C\CCCC(=O)OC[C@@H](COC(=O)CCCCCCC/C=C\CCCCCC)OC(=O)CCC/C=C\C/C=C\C/C=C\C/C=C\CCCCC` [TG 16:1_20:4_20:4] (ion (formula + adduct): [C59H96O6+NH4] 1+) here?
A: 323 Å²

Q: For `CC/C=C\C/C=C\C/C=C\C/C=C\C/C=C\CCCCCC(=O)OC[C@@H](COC(=O)CCCCCCC/C=C\CCCCCC)OC(=O)CCC/C=C\C/C=C\C/C=C\C/C=C\CCCCC` [TG 16:1_20:4_22:5] (ion (formula + adduct): [C61H98O6+NH4] 1+), which “TIMS collisional cross section” value (sample type: HeLa) is on record?
A: 328.2 Å²

Q: For `CC/C=C\C/C=C\C/C=C\C/C=C\C/C=C\C/C=C\CCC(=O)OC[C@@H](COC(=O)CCCCCCC/C=C\CCCCCC)OC(=O)CCCCC/C=C\C/C=C\C/C=C\C/C=C\C/C=C\CC` [TG 16:1_22:5_22:6] (ion (formula + adduct): [C63H98O6+NH4] 1+), which “TIMS collisional cross section” value (sample type: HeLa) is on record?
A: 332.4 Å²

Q: Which “TIMS collisional cross section” value (sample type: HeLa) does the source give for `CC/C=C\C/C=C\C/C=C\C/C=C\C/C=C\C/C=C\CCC(=O)OC[C@@H](COC(=O)CCCCCCC/C=C\CCCCCC)OC(=O)CC/C=C\C/C=C\C/C=C\C/C=C\C/C=C\C/C=C\CC` [TG 16:1_22:6_22:6] (ion (formula + adduct): [C63H96O6+NH4] 1+) here?
A: 329.5 Å²

Q: For `CCCCCCC/C=C\CCCCCCCC(=O)O[C@@H](COC(=O)CCCCCCC/C=C\CCCCCCCC)COC(=O)CCCCCCCCCCCCCCCC` [TG 17:0_17:1_18:1] (ion (formula + adduct): [C55H102O6+NH4] 1+), which “TIMS collisional cross section” value (sample type: HeLa) is on record?
A: 322.1 Å²

Q: What about the “TIMS collisional cross section” value (sample type: Liver) of the same compound?
A: 322.4 Å²

Q: And the “TIMS collisional cross section” value (sample type: plasma)?
A: 322.7 Å²

Q: What does the source list for `CCCCCCCC/C=C\CCCCCCCC(=O)OC[C@@H](COC(=O)CCCCCCCCCCCCCCCC)OC(=O)CCCCCCCCCCCCCCCCC` [TG 17:0_18:0_18:1] (ion (formula + adduct): [C56H106O6+NH4] 1+)?
A: TIMS collisional cross section (sample type: HeLa): 327.3 Å²; TIMS collisional cross section (sample type: Liver): 327.7 Å²; TIMS collisional cross section (sample type: plasma): 327.4 Å²

Q: For `CCCCCCCC/C=C\CCCCCCCC(=O)OC[C@@H](COC(=O)CCCCCCCCCCCCCCCC)OC(=O)CCCCCCC/C=C\CCCCCCCC` [TG 17:0_18:1_18:1] (ion (formula + adduct): [C56H104O6+NH4] 1+), which “TIMS collisional cross section” value (sample type: plasma) is on record?
A: 325.5 Å²

Q: What does the source list for `CCCCC/C=C\C/C=C\CCCCCCCC(=O)OC[C@@H](COC(=O)CCCCCCCCCCCCCCCC)OC(=O)CCCCCCC/C=C\CCCCCCCC` [TG 17:0_18:1_18:2] (ion (formula + adduct): [C56H102O6+NH4] 1+)?
A: TIMS collisional cross section (sample type: Liver): 322.9 Å²; TIMS collisional cross section (sample type: plasma): 323.2 Å²

Q: Which “TIMS collisional cross section” value (sample type: HeLa) does the source give for `CCCCCCCC/C=C\CCCCCCCCCC(=O)OC[C@@H](COC(=O)CCCCCCCCCCCCCCCC)OC(=O)CCCCCCC/C=C\CCCCCCCC` [TG 17:0_18:1_20:1] (ion (formula + adduct): [C58H108O6+NH4] 1+) here?
A: 330.7 Å²

Q: What about the “TIMS collisional cross section” value (sample type: Liver) of the same compound?
A: 331.2 Å²

Q: And the “TIMS collisional cross section” value (sample type: plasma)?
A: 332 Å²

Q: For `CCCCC/C=C\C/C=C\CCCCCCCCCC(=O)OC[C@@H](COC(=O)CCCCCCCCCCCCCCCC)OC(=O)CCCCCCC/C=C\CCCCCCCC` [TG 17:0_18:1_20:2] (ion (formula + adduct): [C58H106O6+NH4] 1+), which “TIMS collisional cross section” value (sample type: plasma) is on record?
A: 329.3 Å²

Q: Which “TIMS collisional cross section” value (sample type: Liver) does the source give for `CCCCCCCC/C=C\CCCCCCCC(=O)O[C@H](COC(=O)CCCCCCCCCCCCCCCC)COC(=O)CCCCCCCCCCCCCCCCCCCCC` [TG 17:0_18:1_22:0] (ion (formula + adduct): [C60H114O6+NH4] 1+) here?
A: 338.8 Å²

Q: And the “TIMS collisional cross section” value (sample type: plasma)?
A: 338.7 Å²

Q: Which “TIMS collisional cross section” value (sample type: Liver) does the source give for `CCCCC/C=C\C/C=C\C/C=C\C/C=C\CCCC(=O)OC[C@@H](COC(=O)CCCCCCCCCCCCCCCC)OC(=O)CCCCCCC/C=C\C/C=C\CCCCC` [TG 17:0_18:2_20:4] (ion (formula + adduct): [C58H100O6+NH4] 1+) here?
A: 326.4 Å²

Q: For `CCCCCCC/C=C\CCCCCCCC(=O)OC[C@H](COC(=O)CCCCCCC/C=C\CCCCCCCC)OC(=O)CCCCCCCCCCCCCCCCC` [TG 17:1_18:0_18:1] (ion (formula + adduct): [C56H104O6+NH4] 1+), which “TIMS collisional cross section” value (sample type: Liver) is on record?
A: 325.6 Å²

Q: Which “TIMS collisional cross section” value (sample type: HeLa) does the source give for `CCCCCCC/C=C\CCCCCCCC(=O)OC[C@H](COC(=O)CCCCCCC/C=C\CCCCCCCC)OC(=O)CCCCCCC/C=C\CCCCCCCC` [TG 17:1_18:1_18:1] (ion (formula + adduct): [C56H102O6+NH4] 1+) here?
A: 323.2 Å²

Q: Which “TIMS collisional cross section” value (sample type: HeLa) does the source give for `CCCCC/C=C\C/C=C\CCCCCCCC(=O)OC[C@@H](COC(=O)CCCCCCC/C=C\CCCCCCC)OC(=O)CCCCCCC/C=C\CCCCCCCC` [TG 17:1_18:1_18:2] (ion (formula + adduct): [C56H100O6+NH4] 1+) here?
A: 320.8 Å²

Q: And the “TIMS collisional cross section” value (sample type: plasma)?
A: 320.6 Å²
